Experiments:
rgRSV224 virus = assay: Antiviral activity: rgRSV224 (GFP) replication in HeLa cells; conditions: human respiratory syncytial virus, 72 h, read-out: RSV HELA EC50
Protocol: Black 384-well clear-bottom microtiter plates (Corning, Amsterdam, The Netherlands) were filled via acoustic drop ejection using the echo liquid handler (Labcyte, Sunnyvale, Calif.). 200 nL of compound stock solutions (100% DMSO) were transferred to the assay plates. 9 serial 4-fold dilutions of compound were made, creating per quadrant the same compound concentration. The assay was initiated by adding 10 μL of culture medium to each well (RPMI medium without phenol red, 10% FBS-heat inactivated, 0.04% gentamycin (50 mg/mL). All addition steps are done by using a multidrop dispenser (Thermo Scientific, Erembodegem, Belgium). Next, rgRSV224 virus (MOI=1) diluted in culture medium was added to the plates. rgRSV224 virus is an engineered virus that includes an additional GFP gene (Hallak L K, Spillmann D, Collins P L, Peeples M E. Glycosaminoglycan sulfation requirements for respiratory syncytial virus infection; Journal of virology (2000), 74(22), 10508-13) and was in-licensed from the NIH (Bethesda, Md., USA). Finally, 20 μL of a HeLa cell suspension (3,000 cells/well) were plated. Medium, virus- and mock-infected controls were included in each test. The wells contain 0.05% DMSO per volume. Cells were incubated at 37° C. in a 5% CO2 atmosphere. Three days post-virus exposure, viral replication was quantified by measuring GFP expression in the cells by an in house developed MSM laser microscope (Tibotec, Beerse, Belgium). The EC50 was defined as the 50% inhibitory concentration for GFP expression. In parallel, compounds were incubated for three days in a set of white 384-well microtiter plates (Corning) and the cytotoxicity of compounds in HeLa cells was determined by measuring the ATP content of the cells using the ATPlite kit (Perkin Elmer, Zaventem, Belgium) according to the manufacturer's instructions. The CC50 was defined as the 50% concentration for cytotoxicity.

in vitro = conditions: human
Protocol: The wells contain 0.05% DMSO per volume. Cells were incubated at 37° C. in a 5% CO2 atmosphere. […] In parallel, compounds were incubated for three days in a set of white 384-well microtiter plates (Corning) and the cytotoxicity of compounds in HeLa cells was determined by measuring the ATP content of the cells using the ATPlite kit (Perkin Elmer, Zaventem, Belgium) according to the manufacturer's instructions. The CC50 was defined as the 50% concentration for cytotoxicity.

C[C@@H]1c2ccccc2CCN1C(=O)c1cc(C2CC2)n2c(F)c(-c3ccc([C@@H]4C[C@H]4C(=O)O)cc3F)nc2n1 (mixture of isomers) [Compound 25, trans-2-(4-{5-cyclopropyl-3-fluoro-7-[(1R)-1-methyl-1,2,3,4-tetrahydroisoquinoline-2-carbonyl]imidazo[1,2-a]pyrimidin-2-yl}-3-fluorophenyl)cyclopropane-1-carboxylic Acid]
EC50 (rgRSV224 virus): 0.112 µM
CC50 at 3 days (in vitro): 22.3 µM

C[C@@H]1c2ccccc2CCN1C(=O)c1cc(C2CC2)n2c(F)c(-c3ccc([C@H]4C[C@H]4C(=O)O)cc3F)nc2n1 (mixture of isomers) [Compound 26, cis-2-(4-{5-cyclopropyl-3-fluoro-7-[(1R)-1-methyl-1,2,3,4-tetrahydroisoquinoline-2-carbonyl]imidazo[1,2-a]pyrimidin-2-yl}-3-fluorophenyl)cyclopropane-1-carboxylic Acid]
EC50 (rgRSV224 virus): 3.42 µM
CC50 at 3 days (in vitro): 77.2 µM

CCc1cc(C(=O)N2CCc3ccccc3[C@H]2C)cc2cc(-c3ccc(C4C[C@H]4C(=O)O)cc3F)nn12 (relative stereo) [Compound 4, Trans-2-(4-{7-ethyl-5-[(1R)-1-methyl-1,2,3,4-tetrahydroisoquinoline-2-carbonyl]pyrazolo[1,5-a]pyridin-2-yl}-3-fluorophenyl)cyclopropane-1-carboxylic Acid]
EC50 (rgRSV224 virus): 0.219 µM
CC50 at 3 days (in vitro): 57.6 µM

CCc1cc(C(=O)N2CCc3ccccc3[C@H]2C)c(OC)c2cc(-c3ccc(C4C[C@H]4C(=O)O)cc3F)nn12 (relative stereo) [Compound 5, trans-2-(4-{7-Ethyl-4-methoxy-5-[(1R)-1-methyl-1,2,3,4-tetrahydroisoquinoline-2-carbonyl]pyrazolo[1,5-a]pyridin-2-yl}-3-fluorophenyl)cyclopropane-1-carboxylic Acid]
EC50 (rgRSV224 virus): 1.7 µM
CC50 at 3 days (in vitro): 47.2 µM

C[C@@H]1c2ccccc2CCN1C(=O)c1cc(C2CC2)n2nc(-c3ccc(C4C[C@H]4C(=O)O)cc3F)cc2c1F (relative stereo) [Compound 6, trans-2-(4-{7-Cyclopropyl-4-fluoro-5-[(1R)-1-methyl-1,2,3,4-tetrahydroisoquinoline-2-carbonyl]pyrazolo[1,5-a]pyridin-2-yl}-3-fluorophenyl)cyclopropane-1-carboxylic Acid]
EC50 (rgRSV224 virus): 0.09 µM
CC50 at 3 days (in vitro): 50.2 µM

C[C@@H]1c2ccccc2CCN1C(=O)c1cc(C2CC2)n2nc(-c3ccc(C4C[C@H]4C(=O)O)cc3F)nc2c1 (relative stereo) [Compound 16, trans-2-(4-{5-Cyclopropyl-7-[(1R)-1-methyl-1,2,3,4-tetrahydroisoquinoline-2-carbonyl]-[1,2,4]triazolo[1,5-a]pyridin-2-yl}-3-fluorophenyl)cyclopropane-1-carboxylic Acid]
EC50 (rgRSV224 virus): 0.182 µM
CC50 at 3 days (in vitro): 79.4 µM

C[C@@H]1c2ccccc2CCN1C(=O)c1cc(C2CC2)n2nc(-c3ccc(C4C[C@@H]4C(=O)O)cc3F)nc2c1 (relative stereo) [Compound 17, cis-2-(4-{5-Cyclopropyl-7-[(1R)-1-methyl-1,2,3,4-tetrahydroisoquinoline-2-carbonyl]-[1,2,4]triazolo[1,5-a]pyridin-2-yl}-3-fluorophenyl)cyclopropane-1-carboxylic Acid]
EC50 (rgRSV224 virus): 2.01 µM
CC50 at 3 days (in vitro): > 100 µM

C[C@@H]1c2ccccc2CCN1C(=O)c1cc(C2CC2)n2nc(-c3ccc(C4C[C@H]4C(N)=O)cc3F)nc2c1 (relative stereo) [Compound 18, trans-2-(4-{5-Cyclopropyl-7-[(1R)-1-methyl-1,2,3,4-tetrahydroisoquinoline-2-carbonyl]-[1,2,4]triazolo[1,5-a]pyridin-2-yl}-3-fluorophenyl)cyclopropane-1-carboxamide]
EC50 (rgRSV224 virus): 0.178 µM
CC50 at 3 days (in vitro): 47.9 µM

C[C@@H]1c2ccccc2CCN1C(=O)c1cc(C2CC2)n2cc(-c3ccc(C4C[C@H]4C(=O)O)cc3F)nc2n1 (relative stereo) [Compound 24, trans-2-(4-{5-Cyclopropyl-7-[(1R)-1-methyl-1,2,3,4-tetrahydroisoquinoline-2-carbonyl]imidazo[1,2-a]pyrimidin-2-yl}-3-fluorophenyl)cyclopropane-1-carboxylic Acid]
EC50 (rgRSV224 virus): 0.105 µM
CC50 at 3 days (in vitro): 69.7 µM

CCc1cc(C(=O)N2CCc3ccccc3[C@H]2C)cc2cc(-c3ccc([C@H]4C[C@@H]4C(=O)O)cc3F)cn12 [Compound 1, (1S,2S)-2-(4-{5-Ethyl-7-[(1R)-1-methyl-1,2,3,4-tetrahydroisoquinoline-2-carbonyl]indolizin-2-yl}-3-fluorophenyl)cyclopropane-1-carboxylic Acid]
EC50 (rgRSV224 virus): 0.195 µM
CC50 at 3 days (in vitro): 45.1 µM

CCc1cc(C(=O)N2CCc3ccccc3[C@H]2C)cc2cc(-c3ccc([C@H]4C[C@@H]4C(N)=O)cc3F)cn12 [Compound 2]
EC50 (rgRSV224 virus): 0.344 µM
CC50 at 3 days (in vitro): 52.7 µM

CCc1cc(C(=O)N2CCc3ccccc3[C@H]2C)cc2cc(-c3ccc(N4CC[C@H](C(=O)O)C4)cc3F)cn12 [Compound 3, (3S)-1-(4-{5-Ethyl-7-[(1R)-1-methyl-1,2,3,4-tetrahydroisoquinoline-2-carbonyl]indolizin-2-yl}-3-fluorophenyl)pyrrolidine-3-carboxylic Acid]
EC50 (rgRSV224 virus): 0.218 µM
CC50 at 3 days (in vitro): 44 µM

C[C@@H]1c2ccccc2CCN1C(=O)c1cc(C2CC2)n2nc(-c3ccc(N4CC[C@H](C(=O)O)C4)cc3F)cc2c1 [Compound 7, (3S)-1-(4-{7-Cyclopropyl-5-[(1R)-1-methyl-1,2,3,4-tetrahydroisoquinoline-2-carbonyl]pyrazolo[1,5-a]pyridin-2-yl}-3-fluorophenyl)pyrrolidine-3-carboxylic Acid]
EC50 (rgRSV224 virus): 0.064 µM
CC50 at 3 days (in vitro): 48 µM

C[C@@H]1c2ccccc2CCN1C(=O)c1cc(C2CC2)n2nc(-c3ccc(N4CC[C@H](C(N)=O)C4)cc3F)cc2c1 [Compound 8, (3S)-1-(4-{7-Cyclopropyl-5-[(1R)-1-methyl-1,2,3,4-tetrahydroisoquinoline-2-carbonyl]pyrazolo[1,5-a]pyridin-2-yl}-3-fluorophenyl)pyrrolidine-3-carboxamide]
EC50 (rgRSV224 virus): 0.054 µM
CC50 at 3 days (in vitro): 53.4 µM

CCc1cc(C(=O)N2CCc3ccccc3[C@H]2C)c(C)c2cc(-c3ccc(N4CC[C@H](C(=O)O)C4)cc3F)nn12 [Compound 9, (3S)-1-(4-{7-Ethyl-4-methyl-5-[(1R)-1-methyl-1,2,3,4-tetrahydroisoquinoline-2-carbonyl]pyrazolo[1,5-a]pyridin-2-yl}-3-fluorophenyl)pyrrolidine-3-carboxylic Acid]
EC50 (rgRSV224 virus): 0.596 µM
CC50 at 3 days (in vitro): 50.6 µM

C[C@@H]1c2ccccc2CCN1C(=O)c1cc(C2CC2)n2nc(-c3ccc(N4CC[C@H](C(N)=O)C4)cc3F)cc2c1F [Compound 10, (3S)-1-(4-{7-Cyclopropyl-4-fluoro-5-[(1R)-1-methyl-1,2,3,4-tetrahydroisoquinoline-2-carbonyl]pyrazolo[1,5-a]pyridin-2-yl}-3-fluorophenyl)pyrrolidine-3-carboxamide]
EC50 (rgRSV224 virus): 0.062 µM
CC50 at 3 days (in vitro): 40.4 µM

C[C@@H]1c2ccccc2CCN1C(=O)c1cc(C2CC2)n2nc(-c3ccc(N4CC[C@H](C(=O)O)C4)cc3F)nc2c1 [Compound 19, (3S)-1-(4-{5-Cyclopropyl-7-[(1R)-1-methyl-1,2,3,4-tetrahydroisoquinoline-2-carbonyl]-[1,2,4]triazolo[1,5-a]pyridin-2-yl}-3-fluorophenyl)pyrrolidine-3-carboxylic Acid]
EC50 (rgRSV224 virus): 0.1 µM
CC50 at 3 days (in vitro): 60.9 µM

C[C@@H]1c2ccccc2CCN1C(=O)c1cc(C2CC2)n2nc(-c3ccc(N4CC[C@H](C(N)=O)C4)cc3F)nc2c1 [Compound 20, (3S)-1-(4-{5-Cyclopropyl-7-[(1R)-1-methyl-1,2,3,4-tetrahydroisoquinoline-2-carbonyl]-[1,2,4]triazolo[1,5-a]pyridin-2-yl}-3-fluorophenyl)pyrrolidine-3-carboxamide]
EC50 (rgRSV224 virus): 0.102 µM
CC50 at 3 days (in vitro): 45.6 µM

C[C@@H]1c2ccccc2CCN1C(=O)c1cc2cc(-c3ccc(N4CC[C@H](C(=O)O)C4)cc3F)nn2c(C2CC2)n1 [Compound 21, (3S)-1-(4-{7-Cyclopropyl-5-[(1R)-1-methyl-1,2,3,4-tetrahydroisoquinoline-2-carbonyl]pyrazolo[1,5-c]pyrimidin-2-yl}-3-fluorophenyl)pyrrolidine-3-carboxylic Acid]
EC50 (rgRSV224 virus): 0.564 µM
CC50 at 3 days (in vitro): 29.8 µM

C[C@@H]1c2ccccc2CCN1C(=O)c1cc2cc(-c3ccc(N4CC[C@H](C(N)=O)C4)cc3F)nn2c(C2CC2)n1 [Compound 22, (3S)-1-(4-{7-Cyclopropyl-5-[(1R)-1-methyl-1,2,3,4-tetrahydroisoquinoline-2-carbonyl]pyrazolo[1,5-c]pyrimidin-2-yl}-3-fluorophenyl)pyrrolidine-3-carboxamide]
EC50 (rgRSV224 virus): 0.87 µM
CC50 at 3 days (in vitro): > 100 µM

CNC(=O)[C@H]1CCN(c2ccc(-c3cc4cc(C(=O)N5CCc6ccccc6[C@H]5C)nc(C5CC5)n4n3)c(F)c2)C1 [Compound 23, (3S)-1-(4-{7-Cyclopropyl-5-[(1R)-1-methyl-1,2,3,4-tetrahydroisoquinoline-2-carbonyl]pyrazolo[1,5-c]pyrimidin-2-yl}-3-fluorophenyl)-N-methylpyrrolidine-3-carboxamide]
EC50 (rgRSV224 virus): 0.882 µM
CC50 at 3 days (in vitro): > 100 µM

C[C@@H]1c2ccccc2CCN1C(=O)c1cc(C2CC2)n2cc(-c3ccc(N4CC[C@H](C(=O)O)C4)cc3F)nc2n1 [Compound 27, (3S)-1-(4-{5-Cyclopropyl-7-[(1R)-1-methyl-1,2,3,4-tetrahydroisoquinoline-2-carbonyl]imidazo[1,2-a]pyrimidin-2-yl}-3-fluorophenyl)pyrrolidine-3-carboxylic Acid]
EC50 (rgRSV224 virus): 0.159 µM
CC50 at 3 days (in vitro): 40.4 µM

C[C@@H]1c2ccccc2CCN1C(=O)c1cc(C2CC2)n2cc(-c3ccc(N4CC[C@H](C(N)=O)C4)cc3F)nc2n1 [Compound 28, (3S)-1-(4-{5-Cyclopropyl-7-[(1R)-1-methyl-1,2,3,4-tetrahydroisoquinoline-2-carbonyl]imidazo[1,2-a]pyrimidin-2-yl}-3-fluorophenyl)pyrrolidine-3-carboxamide]
EC50 (rgRSV224 virus): 0.112 µM
CC50 at 3 days (in vitro): 22.3 µM
